Data published in article PMC4773869, “Influence of plasma-activated compounds on melanogenesis and tyrosinase activity” (Scientific Reports, 2016).
Read-outs that look alike come from different tables or passages of the source.

Experiments:
[1] = test system: MITF expression in B16F10 cells; assay: Western blot, MITF expression; type: cell-based, murine; settings: 24 hr; for expression of MITF versus control: ED (as-synthesized); for expression of MITF versus ED: PAED (plasma-treated)
Description: (§1) Melanoma cells were incubated with as-synthesized and plasma-treated 4b and 6a test compounds for 24 hr. Following incubation, treated and untreated cells were lysed in RIPA buffer (Cell Signaling Technology, USA), whole cell protein was extracted and subjected to electrophoresis in 12% SDS-PAGE, and blotted onto nitrocellulose membranes. The membrane was probed with the antibodies raised against MITF, tyrosinase and TRP1 (Abcam, USA). The bands were detected using Super Signal West Pico Chemiluminescent Substrate (Pierce, Rockford, IL, USA) and images were taken using a Vilver imaging system (Vilver, Upland, CA, USA).

mushroom tyrosinase [2] = target: T1, mushroom tyrosinase (Agaricus bisporus, UniProt C7FF04); assay: Mushroom tyrosinase inhibition assay (L-DOPA, dopachrome at 492 nm); type: biochemical; set-up: purchased Sigma Chemical Co. USA; settings: mean ± SD, read-out: Tyrosinase inhibitory activity IC50 (converted)
Description: To determine the action of ED and PAED, we checked the mushroom tyrosinase inhibitory activity in a cell-free environment. […] Moreover, after plasma treatment for different time intervals, we observed that inhibition activity of 4a, 4b, 4d and 6a was improved more as compared to without treatment. […] However, we observed the highest relative improvement in IC50 value of compound 4b among all ED compounds at 10 min plasma treatment. […] Therefore, we used the 4b and 6a compounds for further investigations, based on the decrease in IC50 value to a global minimum of the experiment after plasma treatment.
The mushroom tyrosinase was used for in vitro bioassays as described previously with some modifications. Briefly, 140 μl of phosphate buffer (20 mM, pH 6.8), 20 μl of mushroom tyrosinase (30 U/ml), and 20 μl of the inhibitor solution were placed in the wells of a 96-well plate. After pre-incubation for 10 min at room temperature, 20 μl of L-DOPA (3,4-dihydroxyphenylalanine) (0.85 mM) was added and the plate was further incubated at 25 °C for 20 min. Subsequently the absorbance of dopachrome was measured at 492 nm using a micro plate reader (OPTI Max, Tunable). Kojic acid was used as a reference inhibitor. The extent of inhibition by the test compounds was expressed as the […] necessary to achieve 50% inhibition (IC50). Each concentration was analyzed in three independent experiments run in triplicate. The IC50 values were determined by the data analysis and graphing software, Origin.
Target sequence in this assay (C7FF04 1-392): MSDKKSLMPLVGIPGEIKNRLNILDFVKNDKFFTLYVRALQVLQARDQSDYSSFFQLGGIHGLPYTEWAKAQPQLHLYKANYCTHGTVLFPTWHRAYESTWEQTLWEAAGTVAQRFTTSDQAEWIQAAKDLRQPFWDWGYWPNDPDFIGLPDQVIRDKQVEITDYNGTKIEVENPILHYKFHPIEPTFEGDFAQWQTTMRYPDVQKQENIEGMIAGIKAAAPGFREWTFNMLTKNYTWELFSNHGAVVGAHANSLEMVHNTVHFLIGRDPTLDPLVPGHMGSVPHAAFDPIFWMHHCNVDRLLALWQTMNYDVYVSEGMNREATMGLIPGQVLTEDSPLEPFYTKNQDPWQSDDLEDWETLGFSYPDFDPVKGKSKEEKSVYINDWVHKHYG

mushroom tyrosinase [3] = target: T1, mushroom tyrosinase; assay: Circular dichroism analysis of the secondary structure of mushroom tyrosinase; settings: tyrosinase + as-synthesized compound (0 min plasma), 0.1 mM; for Turn % of tyrosinase: enzyme alone 7; for α-helix % of tyrosinase: enzyme alone 16; for β-sheet % of tyrosinase: enzyme alone 33; for Random coil % of tyrosinase: enzyme alone 44
Description: The structural changes in tyrosinase after incubation with ED and PAED were plotted in Fig. 5. […] We observed that the control tyrosinase enzyme has 16% α-helix, 33% β-sheets, 7% turn, and 44% random coil. After the interaction with 4a, the amount of α-helix changed to 15% and β-sheets changed to 35%. On the other hand, after the plasma treatment of 4a the amount of α-helix changed to 17% and β-sheets changed to 31%. While, after interacting with 4b, the amount of α-helix is 16.0%, β-sheets 29%, turn 10%, and random coil is 45.0%. However, plasma-activated 4b interacts differently with tyrosinase enzyme, showing 16% α-helix, 33% β-sheets, 6% turn, and 45% random coil. When 6a ED interacted with tyrosinase enzyme, we observed 20% α-helix, 25% β-sheets, 11.0% turn, and 44% random coil. However, 6a PAED interacts with tyrosinase enzyme, the α-helix changed to 19%, β-sheets 28%, turn 9%, and random coil 44%. […] To obtain further detail on the interaction of the ED with tyrosinase enzyme, we studied the molecular docking. For the CD spectroscopic studies[65][66][67] a J-815 spectrophotometer (Jasco, Japan) was used, equipped with a Peltier system that controlled the temperature. (1S)-(+)-10-camphorsulfonic acid (Aldrich, Milwaukee, WI) with a molar extinction coefficient of 34.5 M/cm at 285 nm and a 2.36 M/cm molar ellipticity (θ) at 295 nm was used for the CD calibrations. The samples were pre-equilibrated at the desired temperature for 15 min, and the scan speed was fixed for adaptative sampling (error F 0.01) with a response time of 1 sec and a 1 nm bandwidth. The secondary structure of the mushroom tyrosinase was monitored by using a 1.0 cm path length cuvette. The mushroom tyrosinase (0.2 mg/ml) was prepared in phosphate buffer (20 mM) at pH 6.8 for CD analysis. We used the 0.1 mM concentration of all derivatives in 1 ml buffer solution, with or without 10 min plasma treatment. All spectra were collected in triplicate from 200 to 250 nm and the background was corrected against the buffer (blank). The percentages of secondary structures of proteins were calculated using inbuilt Jasco software.
Target sequence in this assay (C7FF04 2-392): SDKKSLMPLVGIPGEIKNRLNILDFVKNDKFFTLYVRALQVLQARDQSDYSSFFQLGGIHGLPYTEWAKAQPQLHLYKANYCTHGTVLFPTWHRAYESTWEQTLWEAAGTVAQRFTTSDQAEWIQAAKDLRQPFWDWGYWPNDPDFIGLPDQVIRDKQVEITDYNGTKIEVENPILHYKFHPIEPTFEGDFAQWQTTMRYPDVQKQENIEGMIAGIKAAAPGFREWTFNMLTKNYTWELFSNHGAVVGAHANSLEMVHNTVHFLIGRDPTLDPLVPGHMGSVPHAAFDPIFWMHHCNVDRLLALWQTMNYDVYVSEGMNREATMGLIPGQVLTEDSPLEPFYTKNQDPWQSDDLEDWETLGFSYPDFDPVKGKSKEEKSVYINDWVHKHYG

[4] = test system: TRP1 expression in B16F10 cells; assay: Western blot, TRP1 expression; type: cell-based, murine; settings: 24 hr; for expression of TRP1 versus control: ED (as-synthesized); for expression of TRP1 versus ED: PAED (plasma-treated)
Description: as §1

B16F10 cells = assay: Intracellular melanin content measurement; type: cell-based, murine; settings: for melanin, % of control (normalized to 100%): as-synthesized ED, no α-MSH, concentration not given; for activity at 35 µg/mL: Mus musculus, B16-F10, 35 μg/ml, read-out: melanin content, % of control (100%)
Description: Melanoma (1.5 × 10^5) cells were seeded in cell culture plates and allowed to attach for 24 hr. Then each eugenol derivative was added and tested separately for melanin activation after 24 hr of incubation. After incubation, cells were detached using trypsin/EDTA and centrifuged at 1000 rpm for 5 min to collect the cell pellets. The cell pellets were solubilized in 1N NaOH at 60 °C for 1 hr. The melanin content was measured spectrophotometrically at 405 nm wavelength using a microplate reader (BioTek, synergy HT)[56]. […] Plasma-treated and non-plasma-treated ED (4b and 6a) were added to the cells, pre-incubated with or without α-MSH (100 nM) for a further 24 hr and melanin content was assayed as described above. Kojic acid can inhibit and α-MSH can stimulate the melanin in the cells, therefore we used them as negative and positive controls.

cAMP in B16F10 cells = assay: Intracellular cAMP measurement (cAMP kit); type: cell-based, murine; settings: for cAMP level: PAED (plasma-treated compound), compared with as-synthesized compound and control; for cAMP level compared to the control: as-synthesized compound, control: media only with cells
Description: For cAMP measurement, the 4b and 6a were treated with plasma for 3, 5, and 10 min, and then added to the cells, pre-incubated with or without α-MSH (100 nM) for 24 hr. The cells were trypsinised and centrifuged to obtain the cell pellets. The cell pellet was lysed and the cAMP level was measured using a cAMP Kit (Abcam, USA) according to the manufacturer’s instructions.

[5] = Con: as-synthesized, before plasma treatment, cell-free
[6] = compound after 3 min N2 APPJ plasma treatment
[7] = compound after 5 min N2 APPJ plasma treatment
[8] = compound after 10 min N2 APPJ plasma treatment

| SMILES | melting point [°C] | expression of MITF versus control [1] | expression of MITF versus ED [1] | IC50 (mushroom tyrosinase [2]; [5]) [µM] | IC50 (mushroom tyrosinase [2]; [6]) [µM] | IC50 (mushroom tyrosinase [2]; [7]) [µM] | IC50 (mushroom tyrosinase [2]; [8]) [µM] | Turn % of tyrosinase (mushroom tyrosinase [3]) [%] | α-helix % of tyrosinase (mushroom tyrosinase [3]) [%] | β-sheet % of tyrosinase (mushroom tyrosinase [3]) [%] | Random coil % of tyrosinase (mushroom tyrosinase [3]) [%] | expression of TRP1 versus control [4] | expression of TRP1 versus ED [4] | melanin, % of control (normalized to 100%) (B16F10 cells) [%] | cAMP level (cAMP in B16F10 cells) | cAMP level compared to the control (cAMP in B16F10 cells) | also measured |
| --- | --- | --- | --- | --- | --- | --- | --- | --- | --- | --- | --- | --- | --- | --- | --- | --- | --- |
| C=CCc1ccc(OC(=O)COC(=O)/C=C/c2ccc(O)cc2)c(OC)c1 [6a, 2-[2-methoxy-4-(prop-2-en-1-yl)phenoxy]-2-oxoethyl(2E)-3-(4-hydroxyphenyl)prop-2-enoate] | 114 to 116 | higher expression | more expression | 13.6 | 13.6 | 13.6 | 8.14 | 11.0 | 20 | 25 | 44 | higher expression | more expression | 125 | enhanced even further | increased | Turn % of tyrosinase (mushroom tyrosinase [3]; listed as 6a-0 min): 11% |
| C=CCc1ccc(OC(=O)COC(=O)c2ccc(O)cc2)c(OC)c1 [4b, 2-[2-methoxy-4-(prop-2-en-1-yl)phenoxy]-2-oxoethyl 4-hydroxybenzoate] | 81 to 83 | higher expression | more expression | 84.7 | 70.1 | 67.2 | 40.9 | 10 | 16.0 | 29 | 45.0 | higher expression | more expression | 126 | enhanced even further | increased | α-helix % of tyrosinase (mushroom tyrosinase [3]; listed as 4b-0 min): 16%; Random coil % of tyrosinase (mushroom tyrosinase [3]; listed as 4b-0 min): 45%; activity at 35 µg/mL (B16F10 cells; after plasma treatment for 10 min, absence of α-MSH): 143%; activity at 35 µg/mL (B16F10 cells; as-synthesized, absence of α-MSH): 125%; activity at 35 µg/mL (B16F10 cells; as-synthesized, presence of α-MSH): 156% |
